Reference: the NIST ThermoML archive (doi:10.1016/j.jct.2014.06.023)
Where “and” joins values, the source holds several entries; their conditions need not be identical. Equal values may be shown once. Numbers after ± are expanded uncertainties.

Settings: Buoyancy - hydrostatic balance with magnetic suspension - one sinker

FCF [difluoromethane]
Settings | mass density
215.35 K, 1103.8 kPa, Liquid | 1230.26 ± 0.28 kg/m3
215.35 K, 1325.8 kPa, Liquid | 1230.63 ± 0.28 kg/m3
215.36 K, 1538.7 kPa, Liquid | 1230.95 ± 0.28 kg/m3
215.36 K, 1697.9 kPa, Liquid | 1231.2 ± 0.28 kg/m3
215.37 K, 103.26 kPa, Liquid | 1228.62 ± 0.28 kg/m3
215.37 K, 297.95 kPa, Liquid | 1228.9 ± 0.28 kg/m3
215.37 K, 703.99 kPa, Liquid | 1229.57 ± 0.28 kg/m3
215.39 K, 1295 kPa, Liquid | 1230.49 ± 0.28 kg/m3
224.87 K, 174.37 kPa, Liquid | 1202.55 ± 0.27 kg/m3
224.87 K, 584.91 kPa, Liquid | 1203.31 ± 0.27 kg/m3
224.88 K, 1061.9 kPa, Liquid | 1204.12 ± 0.28 kg/m3
224.89 K, 1060.1 kPa, Liquid | 1204.1 ± 0.28 kg/m3
224.91 K, 1506.3 kPa, Liquid | 1204.87 ± 0.28 kg/m3
234.46 K, 1590 kPa, Liquid | 1178.28 ± 0.27 kg/m3
234.51 K, 797.4 kPa, Liquid | 1176.49 ± 0.27 kg/m3
234.52 K, 405.74 kPa, Liquid | 1175.67 ± 0.27 kg/m3
234.55 K, 274.67 kPa, Liquid | 1175.3 ± 0.27 kg/m3
234.56 K, 1164.8 kPa, Liquid | 1177.09 ± 0.27 kg/m3
235.12 K, 296.35 kPa, Liquid | 1173.64 ± 0.27 kg/m3
235.12 K, 647.72 kPa, Liquid | 1174.42 ± 0.27 kg/m3
235.12 K, 648.42 kPa, Liquid | 1174.42 ± 0.27 kg/m3
235.12 K, 1119.6 kPa, Liquid | 1175.37 ± 0.27 kg/m3
235.12 K, 1629.1 kPa, Liquid | 1176.43 ± 0.27 kg/m3
235.13 K, 296.36 kPa, Liquid | 1173.65 ± 0.27 kg/m3
235.13 K, 1583.2 kPa, Liquid | 1176.31 ± 0.27 kg/m3
235.14 K, 1742.1 kPa, Liquid | 1176.61 ± 0.27 kg/m3
244.28 K, 721.81 kPa, Liquid | 1147.83 ± 0.26 kg/m3
244.28 K, 1218.8 kPa, Liquid | 1148.97 ± 0.26 kg/m3
244.29 K, 432.84 kPa, Liquid | 1147.12 ± 0.26 kg/m3
244.29 K, 1506.2 kPa, Liquid | 1149.63 ± 0.26 kg/m3
244.3 K, 1507.8 kPa, Liquid | 1149.6 ± 0.26 kg/m3
244.89 K, 745.03 kPa, Liquid | 1145.98 ± 0.26 kg/m3
244.89 K, 1636.6 kPa, Liquid | 1148.09 ± 0.26 kg/m3
244.9 K, 364.35 kPa, Liquid | 1145.04 ± 0.26 kg/m3
244.9 K, 1266.5 kPa, Liquid | 1147.19 ± 0.26 kg/m3
244.9 K, 1785 kPa, Liquid | 1148.39 ± 0.26 kg/m3
244.91 K, 1786.1 kPa, Liquid | 1148.39 ± 0.26 kg/m3
254.08 K, 382.25 kPa, Gas | 10.3656 ± 0.018 kg/m3
254.09 K, 214.16 kPa, Gas | 5.5491 ± 0.017 kg/m3
254.09 K, 313.9 kPa, Gas | 8.3508 ± 0.018 kg/m3
254.1 K, 104.12 kPa, Gas | 2.6275 ± 0.016 kg/m3
254.65 K, 795.59 kPa, Liquid | 1116.29 ± 0.26 kg/m3
254.65 K, 1111.6 kPa, Liquid | 1117.17 ± 0.26 kg/m3
254.65 K, 1794.7 kPa, Liquid | 1119.02 ± 0.26 kg/m3
254.66 K, 487.53 kPa, Liquid | 1115.4 ± 0.26 kg/m3
254.66 K, 1451 kPa, Liquid | 1118.05 ± 0.26 kg/m3
254.66 K, 1795.2 kPa, Liquid | 1119 ± 0.26 kg/m3
254.67 K, 1113.8 kPa, Liquid | 1117.12 ± 0.26 kg/m3
254.67 K, 1449.1 kPa, Liquid | 1118.02 ± 0.26 kg/m3
263.88 K, 107.72 kPa, Gas | 2.6075 ± 0.015 kg/m3
263.88 K, 204.78 kPa, Gas | 5.0609 ± 0.016 kg/m3
263.88 K, 306.27 kPa, Gas | 7.74 ± 0.017 kg/m3
263.88 K, 401.96 kPa, Gas | 10.3885 ± 0.018 kg/m3
263.88 K, 506.07 kPa, Gas | 13.4247 ± 0.018 kg/m3
263.88 K, 571.82 kPa, Gas | 15.4369 ± 0.019 kg/m3
263.89 K, 71.43 kPa, Gas | 1.7159 ± 0.015 kg/m3
264.46 K, 1262.6 kPa, Liquid | 1086.13 ± 0.25 kg/m3
264.46 K, 1771.5 kPa, Liquid | 1087.75 ± 0.25 kg/m3
264.47 K, 883.24 kPa, Liquid | 1084.88 ± 0.25 kg/m3
264.47 K, 1555.9 kPa, Liquid | 1087.04 ± 0.25 kg/m3
264.47 K, 1797.3 kPa, Liquid | 1087.79 ± 0.41 kg/m3
264.47 K, 1799.4 kPa, Liquid | 1087.82 ± 0.41 kg/m3
264.48 K, 882.25 kPa, Liquid | 1084.85 ± 0.25 kg/m3
264.48 K, 1561.7 kPa, Liquid | 1087.04 ± 0.25 kg/m3
264.49 K, 616.31 kPa, Liquid | 1083.92 ± 0.25 kg/m3
273.73 K, 101.73 kPa, Gas | 2.3681 ± 0.015 kg/m3
273.73 K, 312.85 kPa, Gas | 7.5636 ± 0.016 kg/m3
273.73 K, 513.88 kPa, Gas | 12.9426 ± 0.017 kg/m3
273.73 K, 711.85 kPa, Gas | 18.7582 ± 0.019 kg/m3
273.73 K, 817.04 kPa, Gas | 22.1108 ± 0.021 kg/m3
273.74 K, 224.38 kPa, Gas | 5.3352 ± 0.015 kg/m3
273.74 K, 416.77 kPa, Gas | 10.2856 ± 0.017 kg/m3
273.74 K, 614.63 kPa, Gas | 15.8288 ± 0.018 kg/m3
273.74 K, 771.81 kPa, Gas | 20.6433 ± 0.02 kg/m3
273.74 K, 824.1 kPa, Gas | 22.3391 ± 0.021 kg/m3
273.74 K, 876.3 kPa, Liquid | 1053.21 ± 0.24 kg/m3
273.74 K, 1101.1 kPa, Liquid | 1054.06 ± 0.24 kg/m3
273.75 K, 1351.5 kPa, Liquid | 1054.99 ± 0.24 kg/m3
273.76 K, 1582.2 kPa, Liquid | 1055.81 ± 0.24 kg/m3
283.52 K, 412.99 kPa, Gas | 9.7269 ± 0.016 kg/m3
283.52 K, 614.51 kPa, Gas | 15.0118 ± 0.017 kg/m3
283.52 K, 710.61 kPa, Gas | 17.6856 ± 0.018 kg/m3
283.53 K, 101.75 kPa, Gas | 2.2806 ± 0.014 kg/m3
283.53 K, 213.32 kPa, Gas | 4.8632 ± 0.015 kg/m3
283.53 K, 312.42 kPa, Gas | 7.2368 ± 0.015 kg/m3
283.53 K, 812.63 kPa, Gas | 20.6499 ± 0.019 kg/m3
283.54 K, 502.33 kPa, Gas | 12.0197 ± 0.016 kg/m3
283.54 K, 1013.2 kPa, Gas | 26.9253 ± 0.021 kg/m3 and 26.9235 ± 0.021 kg/m3
283.55 K, 911.64 kPa, Gas | 23.6652 ± 0.02 kg/m3
283.55 K, 1562.5 kPa, Liquid | 1020.09 ± 0.24 kg/m3
283.56 K, 1156 kPa, Liquid | 1018.14 ± 0.23 kg/m3
283.56 K, 1382.8 kPa, Liquid | 1019.19 ± 0.23 kg/m3
293.32 K, 107.46 kPa, Gas | 2.3235 ± 0.014 kg/m3
293.32 K, 432.29 kPa, Gas | 9.7863 ± 0.015 kg/m3
293.32 K, 546.17 kPa, Gas | 12.5808 ± 0.016 kg/m3
293.32 K, 656.65 kPa, Gas | 15.3945 ± 0.016 kg/m3
293.33 K, 1265.1 kPa, Gas | 33.2531 ± 0.022 kg/m3
293.33 K, 1397.3 kPa, Gas | 37.8678 ± 0.023 kg/m3
293.33 K, 2143.9 kPa, Liquid | 984.45 ± 0.23 kg/m3
293.34 K, 760.28 kPa, Gas | 18.1362 ± 0.017 kg/m3
293.34 K, 866.25 kPa, Gas | 21.0499 ± 0.018 kg/m3
293.34 K, 968.81 kPa, Gas | 23.9856 ± 0.019 kg/m3
293.34 K, 1066.3 kPa, Gas | 26.9025 ± 0.02 kg/m3
293.34 K, 1161.5 kPa, Gas | 29.864 ± 0.021 kg/m3
293.34 K, 1757.2 kPa, Liquid | 982.24 ± 0.23 kg/m3
293.35 K, 1537.9 kPa, Liquid | 980.97 ± 0.23 kg/m3
293.37 K, 323.39 kPa, Gas | 7.2059 ± 0.015 kg/m3
293.38 K, 219.26 kPa, Gas | 4.8156 ± 0.014 kg/m3
